Data published in patent US6902881B2, “Compounds and methods for regulating cell differentiation” (priority 2000, dated 2005).

Assays:
[1] = tested on: liposarcoma (LS) cells; assay: Proliferation of liposarcoma cells; type: cell-based, human
[2] = tested on: T-lymphoblast (LT) cells; assay: Proliferation of T-lymphoblast cells; type: cell-based, mouse
[3] = tested on: CEA content of HT 29 colon cancer cells; assay: CEA production by HT 29 cells (ELISA/IMx); type: cell-based, human
Procedure: Expression of differentiation markers. Carcinoembryogenic antigen in cell supernatants collected each three days was assayed by standard ELISA determinations using an IMX assay for quantitative measurement of the antigen. Cellular triacyl glycerol content was measured spectrophotometrically by enzymatic hydrolysis and analysis of the amount of glycerol released using a standard assay, Triglyceride (INT) 10 (Sigma Diagnostics). Cellular alkaline phosphatase activity was determined by measuring the fluorescence change induced by the hydrolysis of 4-methylumbelliferylphosphate. The fluorescence is detected at 450 nm with an excitation of 365 nm, using a Jobin Ivon-Spex Fluoro Max-2 fluorimeter. The alkaline phosphatase activity detected was expressed in units of μmol/mg protein/min.
The effects of biliverdine on cell proliferation and production of two differentiation markers, CEA and alkaline phosphatase activity, were analyzed, CEA was assayed by standard ELISA determinations while alkaline phosphatase activity was determined by measuring the fluorescence change induced by the hydrolysis of phosphate from 4-methylumbelliferylphosphate as follows. To measure CEA production, cell supernatants were collected at the first cycle of change of media (third day) and on day 12. […] This was diluted 1:1 and assayed for CEA using an Imx assay for quantitive measurement of the antigen. […]

[4] = tested on: B-lymphoblast (LB) cells; assay: Proliferation of B-lymphoblast cells; type: cell-based, mouse
[5] = tested on: control fertilized oocytes unexposed to UV light; assay: Development of control embryos unexposed to UV light incubated with the compounds (dysmorphogen test); conditions: control fertilized oocytes unexposed to UV light incubated with the compound
Procedure: Several hundred spawned eggs were fertilized in vitro and incubated at 16 to 18° C. […] The vegetal surfaces of some of these embryos were irradiated with one or the other sources of UV light within 10 min of fertilization for 20-30 min. […] The embryos were not disturbed, touched or tipped from the moment of fertilization, during UV irradiation or for the duration of development. […] A score of 5 defines a normal dorsal axis, 4 a microcephalic, 3 a cyclopic, 2 an anoptic, 1 an acephalic and 0 an adorsal embryo.
The biological activities of biliverdin and its derivatives were tested by adding each of them to the incubation solution of embryos after the termination of the UV light exposure to either 254 or 366 nm UV light and at selected time periods between T ƒfm=0.4-2.5. Final concentrations of biliverdin ranged from 0.05 to 5 μM in less than 1% ethanol. […] The extent of dorsal axis formation was analyzed by the morphological criteria described above.
Stage 1 embryos were exposed to UV-light source emitting at 366 nm (Mineralight UVSL-58, Ultraviolet Products, Inc., San Gabriel, Calif.) as described and then incubated in the presence of pure candidate DCD or commercially available biliverdin (Sigma-Aldrich, St. Louis, Mo.) at final concentrations from 0.05 to 1.2 μM in less than 1% ethanol. The concentrations were calculated using a molar extinction coefficient of 51,000. […]

[6] = tested on: HT 29 Cancer Cells; assay: Distribution of cell cycle stages of HT 29 cancer cells; type: cell-based, human
Text: The presence of the CDK-inhibitors leads to under phosphorylation of Rb protein. As a consequence, the cells are removed from cycling and the number of cells in G1 increases while those in S and G2 decrease, compared with control, untreated ones. This response of cell cycle kinetics is quite similar to those reported for other agents known to cause a G1, block e.g. troglitazone. Ultimately, proliferation ceases within one to three days. […] This decreased rate persists even after the tetrapyrrole is no longer added to the incubation medium. Finally, twelve days after its removal, proliferation resumes at a brisker rate dividing every 41 hrs. This rate is still slower than that of the control cells that double every 18 hrs. […] In contrast, cellular survival or proliferation is not affected by amounts lower than 10^−7 M biliverdin (not shown).

## C=CC1=C(C)/C(=C/C2=NC(=C\c3[nH]c(/C=C4\NC(=O)C(C)=C4C=C)c(C)c3CCC(=O)O)/C(CCC(=O)O)=C2C)NC1=O [Biliverdin, biliverdin IXα]
[1]
  day after which division resumes at markedly reduced rate: > 3 days
  division slower than control: 3.3 times
  time until proliferation ceases: within one day
[2]
  time until proliferation ceases: within one day
[2]; still exposed
  time until cell division resumes at nearly the control rate: 3 to 4 days
[3]; HT 29, by days 9-12 of exposure, constitutive slightly below 3
  CEA secreted into the medium: over 80 ng/ml/10^6 cells
[3]; HT 29, quiescent proliferative period days 3-40
  overproduction of the differentiation marker CEA: > 25 fold
[4]
  time until proliferation ceases: within one day
[4]; still exposed
  time until cell division resumes at nearly the control rate: 3 to 4 days
[5]
  average DAI of control embryos: 5
[6]; control 11
  cells in G2: 7%
[6]; control 42
  cells in G1: 63%
[6]; control 47
  cells in S: 30%
